The test system of one test is KPL-4 tumors. Kind of test: KPL-4 xenograft combination study. Type of test: in vivo, mice. Particulars: vs untreated control; ARQ 092 60 mg/kg oral daily 12 days; trastuzumab 15 mg/kg iv every three days; paclitaxel 15 mg/kg iv every 6 days.
In another test the target is T1, AKT1-E17K (Homo sapiens, UniProt P31749, E17K).
T1 construct: host or cells: NIH 3T3 cells
The test is described as follows: AKT1 plasma membrane translocation in NIH 3T3 cells. Type of test: cell-based. The settings on record: NIH 3T3, 1 μM for 2 hours, PDGF-BB 50 ng/ml 10 minutes. As to the method:
(§1) Cells (15,000 cells per chamber) were plated into a Nunc Lab-Tek Chambered Coverglass System (Thermo Fisher Scientific, Waltham, MA) containing full media without antibiotics. […] Next, the cells were stimulated with PDGF (PeproTech, Rocky Hill, NJ) at 50 ng/ml for 10 minutes. Cells were washed with PBS and then fixed with 200 μl paraformaldehyde fixation buffer (3% paraformaldehyde, 2% sucrose in PBS, pre-warmed at […]). After washing with PBS, cells were blocked and permeabolized with 0.1% TX-100 + 1% BSA in PBS for 15 minutes at room temperature. Next, 200 μl DAPI (1 μg/ml in PBS) was used to counterstain the nuclei at room temperature in darkness for 15 minutes. Samples were then rinsed with cold PBS and stored at 4°C until imaging. Images were captured using an Olympus inverted epi-fluorescent microscope (Olympus Corporation of America, Center Valley, PA) with a 60x oil immersion objective.

In a further test the target is T2, AKT1-WT (Homo sapiens, UniProt P31749).
T2 construct: host or cells: NIH 3T3 cells
T2 sequence (P31749 whole entry): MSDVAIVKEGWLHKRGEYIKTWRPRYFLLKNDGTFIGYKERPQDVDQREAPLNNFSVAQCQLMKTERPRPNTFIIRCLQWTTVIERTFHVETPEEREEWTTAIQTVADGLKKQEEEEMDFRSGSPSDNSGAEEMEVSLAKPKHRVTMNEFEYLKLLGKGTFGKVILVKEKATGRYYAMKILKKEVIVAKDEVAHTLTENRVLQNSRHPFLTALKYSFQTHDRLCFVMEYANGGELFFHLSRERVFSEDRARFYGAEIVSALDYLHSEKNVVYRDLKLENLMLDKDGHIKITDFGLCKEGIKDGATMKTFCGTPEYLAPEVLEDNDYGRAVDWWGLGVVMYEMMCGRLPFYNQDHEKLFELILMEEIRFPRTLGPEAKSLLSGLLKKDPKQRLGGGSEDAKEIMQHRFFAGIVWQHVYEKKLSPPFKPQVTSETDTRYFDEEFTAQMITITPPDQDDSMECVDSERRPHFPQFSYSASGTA
The description is as above. Format: cell-based. Particulars: NIH 3T3, 1 μM for 2 hours, PDGF-BB 50 ng/ml 10 minutes. As to the method: as §1

A further test deals with KU-19-19. The test is described as follows: Cell proliferation MTS assay. Particulars: Homo sapiens, read-out: IC50 KU-19-19 (AKT1-E17K, NrasQ61R). Format: cell-based. As to the method:
(§2) IC50 was calculated using Activity Base. Data shown as mean ± standard deviation. […] (DOCX) Click here for additional data file.
(§3) Treated cells were incubated at 37°C for 72 hours in 5% CO2.
(§4) The GI50 was then determined using Microsoft ExcelFit software in Activity Base.

Another test relates to MDA-MB-453. Kind of test: Cell proliferation MTS assay. Format: cell-based. Particulars: Homo sapiens, read-out: IC50 MDA-MB-453 (PIK3CAH1047R). As to the method:
as §2, §3, §4

In the next test the test system is NCI-H1650. Kind of test: Cell proliferation MTS assay. Format: cell-based. Particulars: Homo sapiens, read-out: IC50 NCI-H1650 (PTEN null). As to the method:
as §2, §3, §4
In general terms: Formazan colour is commonly taken as a measure of viable cells.

The test system of test [1] is melanoma PDX tumor model (ST052C). The test is described as follows: Vemurafenib-resistant melanoma PDX combination study. Particulars: ARQ 092 100 mg/kg 5 days on 2 days off; trametinib 3 mg/kg; p<0.05. Format: in vivo, mice.
Experimental: Athymic nude mice (Charles River Laboratories, Wilmington, MA) were subcutaneously implanted with tumor fragments and the study was initiated seven days later when the mean tumor volume was approximately 140 mm^3. […] After 13 days, the dosing schedule for trametinib was reduced to a schedule of 5 days on and 2 days off.
(§5) The tumor length and width (mm) were measured using a digital caliper. The estimated tumor volume (mm^3) was calculated according to the following formula: 0.5 x (tumor length) x (tumor width)^2, and reported as the mean ± SEM.

Like-named read-outs stand apart in the source and are kept apart here.

T1 sequence (P31749 whole entry E17K): as the sequence (P31749 whole entry) above, with E17K counted along it
Experimental for KPL-4 tumors: as §5

Consider `CC(=O)O[C@H]1C(=O)[C@@]2(C)[C@H]([C@H](OC(=O)c3ccccc3)[C@]3(O)C[C@H](OC(=O)[C@H](O)[C@@H](NC(=O)c4ccccc4)c4ccccc4)C(C)=C1C3(C)C)[C@]1(OC(C)=O)CO[C@@H]1C[C@@H]2O` [paclitaxel, reference compound], for which the tumor growth inhibition with KPL-4 tumors is reported as 41%.

One may read the IC50 as the concentration that gives 50% inhibition. In the case of `NC1(c2ccc(-c3nc4ccn5c(=O)[nH]nc5c4cc3-c3ccccc3)cc2)CCC1` [MK-2206, reference compound], the “plasma membrane translocation of AKT1-E17K” value on AKT1-E17K is on record as “only weakly inhibited”. For the same compound, at AKT1-WT, the “plasma membrane translocation of AKT1-WT” value is “inhibited”. Besides, the IC50 amounted to 21.5 ± 5.3 µM in the test with KU-19-19 (KU-19-19, MTS, 72 hours, mean ± standard deviation); 260 ± 20 nM in the test on MDA-MB-453 (MDA-MB-453, MTS, 72 hours, mean ± standard deviation); 15.2 ± 3.01 µM in the test with NCI-H1650 (NCI-H1650, MTS, 72 hours, mean ± standard deviation).

For orientation: TGI means how far tumour growth fell short of that in controls. Take `CC(=O)Nc1cccc(-n2c(=O)n(C3CC3)c(=O)c3c(Nc4ccc(I)cc4F)n(C)c(=O)c(C)c32)c1` [trametinib, reference compound]: the TGI in test [1] was 26%.

For `CC(C)NC[C@@H](C(=O)N1CCN(c2ncnc3c2[C@H](C)C[C@H]3O)CC1)c1ccc(Cl)cc1` [GDC-0068, reference compound], at AKT1-E17K, the “plasma membrane translocation of AKT1-E17K” value is given as “stimulated translocation”. Moreover, the “plasma membrane translocation of AKT1-WT” value on AKT1-WT is “stimulated translocation”. Also, the half-inhibitory concentration (IC50) with KU-19-19 (KU-19-19, 72 h) was 55 ± 5.1 µM; with MDA-MB-453 (MDA-MB-453, 72 h) it was 1000 ± 160 nM; in the test with NCI-H1650 (NCI-H1650, 72 h) it was over 33.3 µM.

Values taken from publication PMC4607407 (PLoS ONE, 2015).
